How the values were obtained:
Format in all cases: in vivo
[1] = system: PC-3 human hormone-independent prostate cancer; assay: PC-3 human prostate cancer xenografts in nude mice, Experiment 4; conditions: for Tumor growth after 28 days (%) / Tumor growth after 46 days (%) / Inhibition (%): 2 μg/day s.c.; for Inhibitory effect on PC-3 tumors compared with reference peptide JMR-132: 2 μg/day vs JMR-132 10 μg/day, after 46 days of treatment
Procedure: (§1) Male nude mice were implanted s.c. with 3 mm^3 pieces of PC-3 human hormone-independent prostate cancer tissue on both flanks. When tumors reached a volume of approximately 50 mm^3, the mice were divided into 12 experimental groups with 8 to 10 animals in each group and received single daily injections for 28 days as follows: 1. Control (vehicle solution); 2. JMR-132 (10 μg/day s.c.); 3. Peptide 11113 (2 μg/day s.c.); 4. Peptide 11119 (2 μg/day s.c.); 5. Peptide 11209 (2 μg/day s.c.); 6. Peptide 11313 (2 μg/day s.c.); 7. Peptide 11408 (2 μg/day s.c.); 8. Peptide 11435 (2 μg/day s.c.); 9. Peptide 11457 (2 μg/day s.c.); 10. Peptide 11459 (2 μg/day s.c.); 11. Peptide 11469 (2 μg/day s.c.); 12. Peptide 11491 (2 μg/day s.c.).
(§2) Tumor volumes were measured once a week. The experiment was ended on day 28 by sacrificing the mice under Isoflurane anesthesia. Resulting tumors were cleaned, weighed, and snap-frozen until further analyses. Statistical analyses of the measurement results were done by two-tailed t-test, p<0.05 being considered significant.
All experimental details of Experiment 4 are the same as for Experiment 3, with the following difference. When tumors reached a volume of approximately 50 mm^3, the mice were divided into 11 experimental groups with 8 to 10 animals in each group and received single daily injections for 46 days as follows: 1. Control (vehicle solution); 2. JMR-132 (10 μg/day s.c.); 3. Peptide 11123 (2 μg/day s.c.); 4. Peptide 11125 (2 μg/day s.c.); 5. Peptide 11213 (2 μg/day s.c.); 6. Peptide 11433 (2 μg/day s.c.); 7. Peptide 11473 (2 μg/day s.c.); 8. Peptide 11485 (2 μg/day s.c.); 9. Peptide 11497 (2 μg/day s.c.); 10. Peptide 11499 (2 μg/day s.c.); 11. Peptide 11521 (2 μg/day s.c.). Tumor volumes were measured once a week. The experiment was ended on day 46 by sacrificing the mice under Isoflurane anesthesia. Resulting tumors were cleaned, weighed, and snap-frozen until further analyses. Statistical analyses of the measurement results were done by two-tailed t-test, p<0.05 being considered significant.

[2] = system: H-460 human non-small cell lung cancer; assay: H-460 human non-SCLC xenografts in nude mice, Experiment 3; conditions: 28 days; for Tumor growth inhibition after 4 weeks (%): 5 μg/day s.c.; for Inhibition of H-460 lung tumor growth compared with reference peptide JMR-132: 5 μg/day vs JMR-132 10 μg/day
Procedure: Male nude mice were implanted s.c. with 3 mm^3 pieces of H-460 human non-SCLC tumor tissue on both flanks. When tumors had grown to a mean volume of approximately 90 mm^3, the mice were randomly assigned into 8 experimental groups with 8 to 10 animals in each group and received single daily injections for 28 days as follows: 1. Control (vehicle solution); 2. JMR-132 (10 μg/day s.c.); 3. Peptide 11123 (5 μg/day s.c.); 4. Peptide 11125 (5 μg/day s.c.); 5. Peptide 11307 (5 μg/day s.c.); 6. Peptide 11317 (5 μg/day s.c.); 7. Peptide 11473 (5 μg/day s.c.); 8. Peptide 11485 (5 μg/day s.c.). Tumor volumes were measured once a week. The experiment was ended on day 28 by sacrificing the mice under Isoflurane anesthesia. Resulting tumors were cleaned, weighed, and snap-frozen until further analyses. Statistical analyses of the measurement results were done by two-tailed t-test, p<0.05 being considered significant.

[3] = system: PC-3 human hormone-independent prostate cancer; assay: PC-3 human prostate cancer xenografts in nude mice, Experiment 3; conditions: 2 μg/day s.c., 28 days
Procedure: as §1, §2

[4] = system: H-460 human non-small cell lung cancer; assay: H-460 human non-SCLC xenografts in nude mice, Experiment 2; conditions: 5 μg/day s.c.; for Tumor growth after 4 weeks (%): 28 days, means±S.E.; for Inhibition (%): after 4 weeks
Procedure: Male nude mice were implanted s.c. with 3 mm^3 pieces of H-460 human non-SCLC tumor tissue on both flanks. When tumors had grown to a mean volume of approximately 90 mm^3, the mice were randomly assigned into 12 experimental groups with 8 to 10 animals in each group and received single daily injections for 28 days as follows: 1. Control (vehicle solution); 2. JMR-132 (10 μg/day s.c.); 3. Peptide 11109 (5 μg/day s.c.); 4. Peptide 11113 (5 μg/day s.c.); 5. Peptide 11119 (5 μg/day s.c.); 6. Peptide 11209 (5 μg/day s.c.); 7. Peptide 11313 (5 μg/day s.c.); 8. Peptide 11408 (5 μg/day s.c.); 9. Peptide 11435 (5 μg/day s.c.); 10. Peptide 11459 (5 μg/day s.c.); 11. Peptide 11469 (5 μg/day s.c.); 12. Peptide 11491 (5 μg/day s.c.). Tumor volumes were measured once a week. The experiment was ended on day 28 by sacrificing the mice under Isoflurane anesthesia. Resulting tumors were cleaned, weighed, and snap-frozen until further analyses. Statistical analyses of the measurement results were done by two-tailed t-test, p<0.05 being considered significant. Data are presented as the means±S.E.

Row | Substance | Tumor growth after 28 days (%) [1] [%] | Tumor growth after 46 days (%) [1] [%] | Inhibitory effect on PC-3 tumors compared with reference peptide JMR-132 [1] | Inhibition (%) ([1]; after 28 days) | Inhibition (%) ([1]; after 46 days) | Tumor growth inhibition after 4 weeks (%) [2] [%] | Inhibition of H-460 lung tumor growth compared with reference peptide JMR-132 [2] | Tumor growth inhibition after 4 weeks (%) [3] [%] | Tumor growth after 4 weeks (%) [4] [%] | Inhibition (%) [4] [%]
1 | [(CH3—(CH2)10—CO-Ada)^0-Tyr^1, D-Arg^2, Cpa^6, Ala^8, Har^9, Tyr(Me)^10, His^11, Abu^15, His^20, Nle^27, D-Arg^28, Har^29]hGH-RH(1-29)NH2 [Peptide 11125] | 424 | 1009 | had a more potent inhibitory effect than reference peptide JMR-132 | 68.97 | 69.69 | 33.03 | more potently inhibited the growth of H-460 lung tumors than the reference peptide JMR-132 |  |  | 
2 | [PhAc^0-Tyr^1, D-Arg^2, Cpa^6, Ala^8, Har^9, Tyr(Me)^10, His^11, Abu^15, His^20, Nle^27, D-Arg^28, Har^29-Apa^30]hGH-RH(1-29)NH2 [Peptide 11209] |  |  |  |  |  |  |  | 48.04 | 6377 ± 2477 | 19.21
3 | [(Ac-Amc)^0-Tyr^1, D-Arg^2, Cpa^6, (Me-Ala)^8, Har^9, Tyr(Me)^10, His^11, Abu^15, His^20, Nle^27, D-Arg^28, Har^29]hGH-RH(1-29)NH2 [Peptide 11408] |  |  |  |  |  |  |  | 63.61 | 3998 ± 1113 | 49.35
4 | [Fer^0-Tyr^1, D-Arg^2, Cpa^6, Ala^8, Har^9, Tyr(Me)^10, His^11, Abu^15, His^20, Nle^27, D-Arg^28, Har^29]hGH-RH(1-29)NH2 [Peptide 11113] |  |  |  |  |  |  |  | 29.37 | 6790 ± 3340 | 13.98
5 | [(Ac-Amc)-Tyr^1, D-Arg^2, Cpa^6, Ala^8, Har^9, Tyr(Me)^10, His^11, Orn^12, Abu^15, His^20, Nle^27, D-Arg^28, Har^29-Amc^30]hGH-RH(1-29)NH2 [Peptide 11307] |  |  |  |  |  | 30.98 | more potently inhibited the growth of H-460 lung tumors than the reference peptide JMR-132 |  |  | 
6 | [(CH3—(CH2)10CO-Ada)^0-Tyr^1, D-Arg^2, Cpa^6, Ala^8, Har^9, Tyr(Me)^10, His^11, Orn^12, Abu^15, His^20, Orn^21, Nle^27, D-Arg^28, Har^29-Ada^30]hGH-RH(1-29)NH2 [Peptide 11485] | 794 | 1257 | had a more potent inhibitory effect than reference peptide JMR-132 | 41.96 | 62.24 | 9.04 |  |  |  | 
7 | [(Dca-Ada)^0-Tyr^1, D-Arg^2, (Phe(F)5)^6, Ala^8, Har^9, Tyr(Me)^10, His^11, Orn^12, Abu^15, His^20, Orn^21, Nle^27, D-Arg^28, Har^29]hGH-RH(1-29)NH2 [Peptide 11491] |  |  |  |  |  |  |  | 72.43 | 1926 ± 473 | 75.60
8 | [(PhAc^0-Ada)-Tyr^1, D-Arg^2, Cpa^6, Ala^8, Har^9, Tyr(Me)^10, His^11, Orn^12, Abu^15, His^20, Orn^21, Nle^27, D-Arg^28, Har^29]hGH-RH(1-29)NH2 [Peptide 11459] |  |  |  |  |  |  |  | 53.60 | 2418 ± 923 | 69.36
9 | [(PhAc^0-Ada)-Tyr^1, D-Arg^2, Cpa^6, Ala^8, Har^9, Tyr(Me)^10, His^11, Orn^12, Abu^15, His^20, Orn^21, Nle^8, D-Arg^28, Har^29-Ada^30]hGH-RH(1-29)NH2 [Peptide 11473] | 442 | 1072 | had a more potent inhibitory effect than reference peptide JMR-132 | 67.68 | 67.80 | 54.64 | more potently inhibited the growth of H-460 lung tumors than the reference peptide JMR-132 |  |  | 
10 | [(Ac-Ada)^0-Tyr^1, D-Arg^2, Cpa^6, Ala^8, Har^9, Tyr(Me)^10, His^11, Orn^12, Abu^15, His^20, Orn^21, Nle^27, D-Arg^28, Har^29]hGH-RH(1-29)NH2 [Peptide 11435] |  |  |  |  |  |  |  | 75.11 | 4170 ± 2064 | 47.17
11 | [(Ac-Ada-D-Phe)^0-Tyr^1, D-Arg^2, Cpa^6, Ala^8, Har^9, Tyr(Me)^10, His^11, Abu^15, His^20, Nle^27, D-Arg^28, Har^29]hGH-RH(1-29)NH2 [Peptide 11119] |  |  |  |  |  |  |  | 32.03 | 5254 ± 1524 | 33.44
12 | [(Dca-Ada)^0-Tyr^1, D-Arg^2, Cpa^6, Ala^8, Har^9, Tyr(Me)^10, His^11, Abu^15, His^20, Nle^27, D-Arg^28, Har^29]hGH-RH(1-29)NH2 [Peptide 11123] | 786 | 1849 |  | 42.57 | 44.48 | 35.74 | more potently inhibited the growth of H-460 lung tumors than the reference peptide JMR-132 |  |  | 
13 | [(Ac-Ada)^0-Tyr^1, D-Arg^2, Cpa^6, Ala^8, Har^9, Tyr(Me)^10, His^11, Orn^12, Abu^15, His^20, Orn^21, Nle^27, D-Arg^28, Har^29-Ada^30]hGH-RH(1-29)NH2 [Peptide 11469] |  |  |  |  |  |  |  | 78.07 | 4810 ± 1977 | 39.06

Reference: US9260504B2, “N- and C-terminal substituted antagonistic analogs of GH-RH” (University of Miami, priority 2008, dated 2016)
